Measured values taken from article PMC11409218, “Metal(triphenylphosphine)-atovaquone Complexes: Synthesis, Antimalarial Activity, and Suppression of Heme Detoxification” (Inorganic Chemistry, 2024).
Read-outs that look alike come from different tables or passages of the source.

Tests used:
[1] = Cytotoxicity in mammalian cells (CellTiter-Glo), HepG2; type: cell-based; conditions: HepG2 hepatocellular carcinoma cells; HepG2 human hepatocellular carcinoma line; 72 h drug incubation; mean of three experiments; read-out: mammalian cells CC50 (±SEM), HepG2
Method: (§1) Cell lines J774 and HepG2 were incubated with the drug for 72 h, the same time frame as employed to determine antimalarial activity. Cytotoxicity was evaluated in parallel with ATV as a representative parental drug, while doxorubicin was used as a standard cytotoxic drug. These experiments were also used to estimate the in vitro selectivity index (Table 2).
(§2) Doxorubicin chloridrate (Eurofarma, São Paulo, Brazil) was used as a positive control, while untreated cells were employed as negative controls. Bioluminescence readings were performed using a Filtermax F5Multi-Mode instrument (Molecular Devices, Sunnyvale, CA) using the CellTiter-Glo kit (Promega Corporation, Madison, USA). Three independent experiments were performed and CC50 values were calculated.

[2] = tested on: P. falciparum W2 (CQ-resistant strain); experiment: Antiplasmodial activity, asexual blood stages, HRP2 ELISA-based assay, W2 strain; type: cell-based, Plasmodium falciparum; conditions: CQ-resistant W2 strain, 72 h drug incubation, mean of five to seven experiments, read-out: P. falciparum IC50 (±SEM), W2
Method: The potency of the metal complexes to inhibit parasite growth was also examined in comparison with ATV.
The two strains were synchronized twice with sorbitol before use,[69] and clonality was verified every 15 days through PCR genotyping of the polymorphic genetic markers msp1 and msp2 and microsatellite loci.[70],[71] Compounds were resuspended in DMSO and then diluted in RPMI-DMSO (99v/1v) to obtain final concentrations ranging from 0.25 to 20000 nM.
After freezing and then thawing, the hemolyzed cultures were homogenized by vortexing the plates. The drug susceptibility assay was performed using the HRP2 ELISA-based assay of the Malaria Ag Celisa kit (ref KM2159, Cellabs PTY LDT, Brookvale, Australia), as described previously.[72]

[3] = Cytotoxicity in mammalian cells (CellTiter-Glo), J774; type: cell-based; conditions: mouse, J774 macrophage cells; J774 murine macrophage line; 72 h drug incubation; mean of three experiments; read-out: mammalian cells CC50 (±SEM), J774
Method: as §1, §2

[4] = tested on: β-hematin crystal formation; experiment: β-Hematin crystal formation by FTIR spectroscopy; type: biochemical; conditions: acid-buffered medium pH 5; 1:3 hematin/compound ratio
Method: The ability of these compounds to inhibit the formation of β-hematin crystals was investigated by IR spectroscopy (Figure 2f). Of note, β-hematin crystal formation was assayed in an acid-buffered medium, while hemin titration was assayed at neutral pH. […]. For both ATV and complexes 1–3, there may have been overlapping between a decrease in the (C = O) band of heme species and a (C = O) band of quinone. However, there was no danger of overlaps in the (C–O) band of heme species at 1210 cm^–1, since these species are absent from the drugs.
The conversion of hematin into β-hematin crystals was determined by FTIR spectroscopy as described previously.[52] In a microtube, 20 mg hemin and three equivalents of the compounds were dissolved in 3 mL 0.1 M NaOH solution and stirred for 30 min at 60 °C. Then, 0.3 mL 0.1 M HCl and 1.7 mL sodium acetate buffer (10 M, pH 5) were added at the same temperature. […] After incubation for 120 min, the reaction mixture was cooled on ice for 10 min and then centrifuged and washed with water to remove salts. Resulting crystals were dried and IR spectra were obtained using ATR mode.[66]−[68]

[5] = tested on: 3D7 strain of P. falciparum; experiment: Coincubation of ATV with metal precursors, parasite growth inhibition (Figure 3C); type: cell-based, Plasmodium falciparum; conditions: ATV 1.0 nM, [Au(PPh3)Cl] and [Cu(PPh3)2NO3] at 1000 nM
Method: (§3) Figure 3 (A) Antiplasmodial activity of the compounds against the 3D7 strain of P. falciparum. (B) Cytotoxicity against the J774 cell line. In both cases, the compounds were diluted in cell culture and incubated for 0 or 72 h before use in the assays. […] In panels A and C, parasite viability was measured by HRP2 ELISA-based assay, and IC50 values were calculated. In panel B, cell viability was measured by CellTiter-Glo, and IC50 values were calculated. In panels A and B, the values are the mean and standard deviation of two independent experiments, using each concentration of compounds in duplicate. In panel C, the values are the mean and standard deviation of one experiment, using each concentration of compounds in quadruplicate. *p < 0.05; indicating significant difference by Student’s t test.
After ascertaining the existence of an association between the reactivity of the metal complexes and their pharmacological activity, we decided to evaluate whether they could be generated in situ upon coincubation of ATV and the respective metal precursors in the cell culture medium. In this set of experiments, ATV was added at 1.0 nM, while the metal precursors of gold(I) [Au(PPh3)Cl] and copper(I) [Cu(PPh3)2NO3] were added at 1000 nM (Figure 3C).

J774 cell line = experiment: Cytotoxicity after preincubation of compounds in cell culture medium (Figure 3B); type: cell-based, murine; conditions: J774 cells; compound preincubated 0 or 72 h in culture medium
Method: as §3
To further shed light on this, we performed the same experiment described above but assessing cytotoxicity in […] cells (Figure 3B). […] Our data also confirm not only drug stability but also the reactivity of the resulting products as important parameters.

[6] = tested on: 3D7 strain of P. falciparum; experiment: Antiplasmodial activity after preincubation of compounds in cell culture medium (Figure 3A); type: cell-based, Plasmodium falciparum; conditions: compound preincubated 0 or 72 h in culture medium
Method: To understand the reason for the difference in antiplasmodial potency between monodentate complex 2 and bidentate complexes 1 and 3, we incubated all three metal complexes in cell culture media for different times before assessing their antiplasmodial activity (Figure 3A). The percentage of parasite growth inhibition in samples of cell culture medium containing complex 2 was reduced after 72 h incubation in comparison to freshly prepared samples (0 h). […] We interpret the loss in antiplasmodial activity for complex 2 as potentially resulting from ligand exchange reactions occurring in the culture medium before drug internalization into parasite cells. This denotes a higher lability for the monodentate complex 2 than for the bidentate complexes 1 and 3.
as §3

Solubility in solvents = type: physicochemical; conditions: for solubility in common organic solvents: dichloromethane, chloroform, dimethyl sulfoxide, acetone
Text: (see Experimental Section). The chemical and physical characterization of ATV and the metal–ATV complexes are presented in the Supporting Information (Figures S1–S16). […] We attributed this band to a metal-to-ligand charge transfer (MLCT metal →π ATV naphthoquinone)[37] (Figures S3, S26–S28).

J774 cells = experiment: Cytotoxicity in mammalian cells (CellTiter-Glo), J774; type: cell-based; conditions: J774 murine macrophage line; 72 h drug incubation; mean of three experiments; read-out: mammalian cells CC50 (±SEM), J774
Method: as §1, §2

O=C1C(O)=C([C@H]2CC[C@H](c3ccc(Cl)cc3)CC2)C(=O)c2ccccc21 [ATV, atovaquone]
CC50 at 72 h [1]: 32.4 ± 4.8 µM | IC50 ([2]; Plasmodium falciparum): 0.0021 ± 0.0009 µM | CC50 at 72 h [3]: 19.8 ± 1.6 µM | inhibition of β-hematin crystal formation (IR bands 1663 and 1210 cm^–1) [4]: unable to inhibit β-hematin crystal formation | parasite growth inhibition of ATV in the absence or presence of metal precursors [5]: did not observe a difference

O=C1C([O][Cu]([PH](c2ccccc2)(c2ccccc2)c2ccccc2)[PH](c2ccccc2)(c2ccccc2)c2ccccc2)=C([C@H]2CC[C@H](c3ccc(Cl)cc3)CC2)C(=O)c2ccccc21 [Complex 3, [Cu(ATV)(PPh3)2]]
IC50 [2]: 0.0263 ± 0.0069 µM | cell viability (cytotoxicity) after 72 h incubation in cell culture medium versus freshly prepared samples (0 h) (J774 cell line): remained unchanged | parasite growth inhibition after 72 h incubation in cell culture medium versus freshly prepared samples (0 h) [6]: remained unchanged | solubility in common organic solvents (Solubility in solvents): had enough solubility | solubility in methanol, ethanol, and acetonitrile (Solubility in solvents): partially soluble | CC50 (J774 cells): 36.1 ± 3.9 µM

[Ag(ATV)(PPh3)2] [Complex 1]
IC50 [2]: 0.0265 ± 0.0078 µM | cell viability (cytotoxicity) after 72 h incubation in cell culture medium versus freshly prepared samples (0 h) (J774 cell line): became less cytotoxic | parasite growth inhibition after 72 h incubation in cell culture medium versus freshly prepared samples (0 h) [6]: remained unchanged | solubility in common organic solvents (Solubility in solvents): had enough solubility | solubility in methanol, ethanol, and acetonitrile (Solubility in solvents): partially soluble | CC50 (J774 cells): 9.5 ± 2.2 µM

[Au(ATV)(PPh3)]·2H2O [Complex 2]
IC50 [2]: 0.0052 ± 0.0022 µM | cell viability (cytotoxicity) after 72 h incubation in cell culture medium versus freshly prepared samples (0 h) (J774 cell line): remained unchanged | parasite growth inhibition after 72 h incubation in cell culture medium versus freshly prepared samples (0 h) [6]: reduced | solubility in common organic solvents (Solubility in solvents): had enough solubility | solubility in methanol, ethanol, and acetonitrile (Solubility in solvents): partially soluble | CC50 (J774 cells): 10.8 ± 3.4 µM
